Assay: xn = mol fraction of the nth substance listed
Conditions: 298.15 K, 101.3 kPa

CC(=O)[O-].CCCC[N+]1(C)CCCC1 + O
Conditions | electrical conductivity [S/m]
x1 = 0.005 | 1.84
x1 = 0.029 | 2.8
x1 = 0.046 | 2.63
x1 = 0.069 | 2.17
x1 = 0.095 | 1.79
x1 = 0.111 | 1.26
x1 = 0.138 | 1.18
x1 = 0.215 | 0.8
x1 = 0.253 | 0.575
x1 = 0.305 | 0.495
x1 = 0.396 | 0.339
x1 = 0.5 | 0.193
x1 = 0.658 | 0.142

Reference: a compilation of properties of binary mixtures (doi:10.1016/j.molliq.2022.120564)
